Results taken from US20080051413A1, “Nitrophenylpiperazine derivative of xanthine which relaxes tracheal airway and increases respiratory performance” (KAOHSIUNG MEDICAL UNIVERSITY, priority 2006, published 2008).

System: carbachol (1 _M)-precontracted guinea pig trachea
Assay: Isolated tracheal preparation, measurement of tension
Method: Isolated Tracheal preparation and Measurement of Tension: Guinea pigs (350-450 g) were anesthetized with pentobarbital (70 mg/kg) i.p. and killed by a sharp blow on the neck, followed by cervical dislocation. The trachea was excised, cleaned of adhering fat and connective tissue, cut transversely into four to five rings, and then opened by cutting longitudinally through the cartilage rings diametrically opposite the tracheal smooth muscle (Hwang T L, Wu C C, and Teng C M (1999) YC-1 potentiates nitric oxide-induced relaxation in guinea-pig trachea. Br J Pharmacol 128:577-584). Then trachea rings were suspended in a 10-ml organ bath containing Krebs' solution (118 mM NaCl, 25 mM NaHCO3, 4.7 mM KCl, 1.2 mM KH2PO4, 1.2 mM MgSO4, 11 mM glucose, and 2.5 mM CaCl2, pH 7.3-7.4) maintained at 37_and aerated with 95% O2 and 5% CO2. Each tracheal tissue sample was subjected to 2 g of initial basal tension. All experiments were carried out in the presence of indomethacin (3 _M) and propranolol (1 _M) to prevent the formation of prostanoids and to inhibit _-adrenergic responses, respectively. Isometric tension was recorded with a force displacement transducer (model FT03; Grass Instruments, Quincy, M A). Before the start of measurements, all preparations were allowed to equilibrate with frequent washing for 1 h. They were first contracted with carbachol (1 _M) to determine the contractility of preparations. This was also done at the end of each experiment. The preparations were then washed and allowed to equilibrate with Krebs' solution for 50 min before being contracted a second time with carbachol (1 _M). When stable constriction to carbachol was reached, concentration responses of KMUP-3 (10, 30, and 100 _M) were obtained. Data were expressed as percentages of the maximum contractile response to carbachol (1 _M).
In experiments to examine the role of epithelium in tracheal relaxation, the epithelial cells were removed mechanically by rubbing the internal surface of trachea with a fine silver wire, and the removal of the epithelial layer was confirmed by histological examination as previously described (Wu et al., 2004).
To examine the possible mechanism of tracheal relaxant effects of KMUP-3, the tracheal strips were pretreated with a K^+ channel blocker, tetraethylammonium (TEA; 10 mM); a KATP channel blocker, glibenclamide (1-M); voltage-dependent K^+ channel blocker, 4-aminopyridine (4-AP, 100 _M); Ca^2+-dependent K^+ channel blockers, apamin (1 _M) and charybdotoxin (ChTX; 0.1 _M); a sGC inhibitor, 1H-[1,2,4]oxadiazolo[4,3-a]quinoxalin-1-one (ODQ; 1 _M); an NOS inhibitor, N—nitro-L-arginine methyl ester (L-NAME; 100 _M); and an adenylate cyclase (AC) inhibitor, SQ 22536 (100 _M) for 30 min prior to the addition of KMUP-3 (10, 30, and 100 _M). In the other experiments, TSMs were precontracted with 60 mM KCl to examine the relaxation achieved by KMUP-3. The KCl solution was prepared by substituting NaCl with KCl (60 mM) in an equimolar amount.

Cn1c(=O)c2c(ncn2CCN2CCN(c3ccc([N+](=O)[O-])cc3)CC2)n(C)c1=O [KMUP-3]
relaxation response after epithelium denudation (FIG. 3(A)) (10, 30, 100 _M, EP− versus EP+): significant decrease in the relaxation response | relaxation, concentration response (10, 30, 100 _M, carbachol- or high-K+-contracted EP+ TSM, also epithelium-denuded): concentration-dependent relaxation | relaxation of TSM strips (100 _M, carbachol (1 _M)-precontracted): up to 130% | relaxation in epithelium-intact trachea (FIG. 3(B)) (100 _M, carbachol (1 _M)-precontracted, EP+): cause relaxations | relaxation in presence of ODQ (1 _M), L-NAME (100 _M) or SQ 22536 (100 _M) (FIG. 5) (30 min pretreatment, EP+ TSM): attenuated | relaxation against carbachol-induced contractions in presence of K+ channel blockers (FIGS. 4(A)-4(E)) (pretreatment with TEA, glibenclamide, 4-AP, apamin or ChTX, EP+): inhibited
